Consider 33 molecules from patent publication US20190031599A1, “INDANE DERIVATIVES AS MGLUR7 MODULATORS” (Takeda Pharmaceutical Company Limited, priority 2016, published 2019).

One may read the EC50 as the concentration at which the effect is half-maximal.

Structures can show the parent of a compound that is named as a salt.

The target in this assay is T1, human mGluR7 (Homo sapiens, UniProt Q14831).
T1 construct: expressed in transfected cells
T1 sequence (Q14831 35-915): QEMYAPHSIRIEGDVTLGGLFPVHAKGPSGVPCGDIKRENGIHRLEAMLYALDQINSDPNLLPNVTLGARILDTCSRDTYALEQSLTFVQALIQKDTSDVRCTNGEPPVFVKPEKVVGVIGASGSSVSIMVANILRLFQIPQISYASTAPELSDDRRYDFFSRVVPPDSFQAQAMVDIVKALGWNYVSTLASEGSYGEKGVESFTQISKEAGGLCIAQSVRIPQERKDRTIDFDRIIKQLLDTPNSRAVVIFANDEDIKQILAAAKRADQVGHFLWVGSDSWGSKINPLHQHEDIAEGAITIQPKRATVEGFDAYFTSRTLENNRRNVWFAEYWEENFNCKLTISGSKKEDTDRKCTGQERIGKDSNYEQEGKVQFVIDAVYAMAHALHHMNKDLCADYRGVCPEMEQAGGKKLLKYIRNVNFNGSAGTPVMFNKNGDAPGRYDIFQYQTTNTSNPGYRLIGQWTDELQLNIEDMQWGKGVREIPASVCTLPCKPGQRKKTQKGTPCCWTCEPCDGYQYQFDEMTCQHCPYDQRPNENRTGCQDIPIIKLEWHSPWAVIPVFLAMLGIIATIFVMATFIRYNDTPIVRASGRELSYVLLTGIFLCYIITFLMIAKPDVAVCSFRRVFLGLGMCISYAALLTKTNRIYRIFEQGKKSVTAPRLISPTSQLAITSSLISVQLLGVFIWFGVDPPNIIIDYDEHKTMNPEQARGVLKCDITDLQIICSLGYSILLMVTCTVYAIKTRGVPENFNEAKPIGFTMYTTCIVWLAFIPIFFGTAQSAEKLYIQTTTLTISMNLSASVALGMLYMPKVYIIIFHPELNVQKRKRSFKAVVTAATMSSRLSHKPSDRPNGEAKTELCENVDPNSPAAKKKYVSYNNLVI
Description: mGluR7 assay: CRE-directed luciferase reporter gene assay, reduction of forskolin stimulated cAMP production. The format is cell-based. To be noted: stable CHO cell line expressing the CRE-luc reporter and human mGluR7 genes; decrease of forskolin stimulated luminescence; 10-point concentration-response, duplicate wells. As to the method: The ability of the test compounds to activate mGluR7 was determined by their ability to reduce forskolin stimulated cAMP production. Compounds were assessed in a CRE-directed luciferase reporter gene assay, using a stable CHO cell line expressing the CRE-luc reporter and human mGluR7 genes. In this cell line, production of cAMP stimulated the transcription of the luciferase gene and luciferase activity was then measured in a luminescent enzyme assay (Steady Glo assay; Promega E2550). Activation of mGluR7 decreased the forskolin stimulated luminescence signal.
The day prior to the assay, compounds were serially diluted in DMSO (100× final assay concentration (FAC)), in 384-well plates which were then stored in the dark at room temperature (RT) until use. Cells were seeded at 12.5 k/well in white, clear bottom 384-well plates (Corning 3707) and left for one hour at RT followed by an overnight incubation (37° C.). The following day, the DMSO compound plate was diluted 1:20 (5× FAC) in Opti-MEM I (Life Technologies 11058021). The growth media was removed from the cell plate and replaced with 15 μl Opti-MEM I, followed by a 5 μl addition from the 5× compound plate and a fifteen minute incubation (37° C.). Forskolin (Sigma F3917) was then added to the wells (5 μl of 2.5 μM) and the plate was incubated for five hours (37° C.). During this incubation, the Steady Glo Substrate reagent was warmed to 37° C. Aliquots (11 ml; stored at −20° C.) of this reagent were prepared by dissolving the contents of 1 vial of lyophilised substrate in 100 ml Steady-Glo buffer. A 25 μl addition of the substrate was made to all wells and the plate was incubated for thirty minutes at RT, on a plate shaker (300 rpm; in the dark). Luminescence was then measured using the EnVision Multilabel Reader (Perkin Elmer).
Compound activity was examined using a 10-point, half log concentration-response range and each concentration was tested in duplicate wells. Luminescence values were normalised to ‘maximum’ (forskolin alone) and ‘minimum’ (forskolin in the presence of tool mGluR7 agonist) controls.
In general terms: In a reporter assay the amount or activity of a reporter protein is the signal.
Regarding `C[C@H](C(=O)N[C@H]1Cc2ccccc2[C@@H]1NC(=O)OC(C)(C)C)c1ccc(F)cc1` [Example 21, tert-butyl N-[(1S,2S)-2-[(2S)-2-(4-fluorophenyl)propanamido]-2,3-dihydro-1H-inden-1-yl]carbamate], the concentration giving a half-maximal response (EC50) is 28 nM. Take `CC(C(=O)N[C@H]1Cc2ccccc2[C@@H]1N)c1ccc(C(F)(F)F)cc1` (stereo partly drawn) [Example 58, N-[(1S,2S)-1-amino-2,3-dihydro-1H-inden-2-yl]-2-[4-(trifluoromethyl)phenyl]propanamide hydrochloride]: a half-maximal effect (EC50) was put at 1780 nM. `N[C@H]1c2ccccc2C[C@@H]1NC(=O)C(c1ccc(F)cc1)N1CC(F)C1` (single isomer, unassigned) [Example 117] came in with an EC50 of 10 nM. Take `CC[C@H](C(=O)N[C@@H]1Cc2ccccc2[C@H]1NC(=O)OC(C)(C)C)c1ccc(F)cc1` [Example 43, tert-butyl N-[(1R,2R)-2-[(2S)-2-(4-fluorophenyl)butanamido]-2,3-dihydro-1H-inden-1-yl]carbamate]: the EC50 is 130 nM.

`C[C@H](C(=O)NC1Cc2ccccc2C1N1CCCC1)c1ccc(F)cc1` (single isomer, unassigned) [Example 68] yielded an EC50 of 28 nM.

Molecule `COC1c2ccccc2CC1NC(=O)C(c1ccc(F)cc1)N1CC(F)C1` (single isomer, unassigned) [Example 143, 2-(4-fluorophenyl)-2-(3-fluoroazetidin-1-yl)-N-(trans)-(1-methoxy-2,3-dihydro-1H-inden-2-yl)acetamide] returned an EC50 of 1250 nM. As for `C[C@H](C(=O)N[C@@H]1Cc2ccccc2[C@H]1N1CC(F)C1)c1ccc(F)cc1` [Example 112, (2S)—N-[(1R,2R)-1-(3-fluoroazetidin-1-yl)-2,3-dihydro-1H-inden-2-yl]-2-(4-fluorophenyl)propanamide], the figure is 11 nM; as for `C[C@H](C(=O)N[C@@H]1Cc2ccccc2[C@H]1S(C)(=O)=O)c1ccc(F)cc1` [Example 113, (2S)-2-(4-fluorophenyl)-N-[(1R,2R)-1-methanesulfonyl-2,3-dihydro-1H-inden-2-yl]propanamide], 38 nM; as for `N[C@H]1c2ccccc2C[C@@H]1NC(=O)C(c1ccc(F)cc1)C1CC1` (single isomer, unassigned) [Example 96], 54 nM. As for `CC(F)(C(=O)N[C@H]1Cc2ccccc2[C@@H]1N)c1ccc(F)cc1` (single isomer, unassigned) [Example 77], the figure is 2630 nM; as for `COC1c2ccccc2CC1NC(=O)[C@@H](NC(=O)c1cnn(C)c1)c1ccc(F)cc1` (stereo in doubt) [Example 65, (2S)-2-(4-fluorophenyl)-N-(trans)-(1-methoxy-2,3-dihydro-1H-inden-2-yl)-2-[(1-methyl-1H-pyrazol-4-yl)formamido]acetamide], 4 nM; as for `CCC(C(=O)N[C@@H]1Cc2ccccc2[C@H]1NC(=O)OC(C)(C)C)c1ccc(F)cc1F` (stereo partly drawn) [Example 41, tert-butyl N-[(1R,2R)-2-[2-(2,4-difluorophenyl)butanamido]-2,3-dihydro-1H-inden-1-yl]carbamate], 216 nM. Turning to `COC1c2ccccc2CC1NC(=O)[C@@H](C)c1ccc(F)cc1` (stereo in doubt) [Example 39, (2S)-2-(4-fluorophenyl)-N-(cis)-(1-methoxy-2,3-dihydro-1H-inden-2-yl)propanamide], the EC50 was found to be 633 nM. As for `C[C@H](C(=O)N[C@H]1Cc2ccccc2[C@@H]1N(Cc1ncco1)Cc1ncco1)c1ccc(F)cc1F` [Example 114, (2S)—N-[(1S,2S)-1-{bis[(1,3-oxazol-2-yl)methyl]amino}-2,3-dihydro-1H-inden-2-yl]-2-(2,4-difluorophenyl)propanamide], the figure is 101 nM. To `CC(C)(C)OC(=O)N[C@H]1c2ccccc2C[C@@H]1NC(=O)C1(c2ccccc2)CC(=O)C1` [Example 123, tert-butyl N-[(1S,2S)-2-(3-oxo-1-phenylcyclobutaneamido)-2,3-dihydro-1H-inden-1-yl]carbamate] belongs 68 nM; to `C[C@H](C(=O)N[C@H]1Cc2ccccc2[C@@H]1NCc1ncccc1F)c1ccc(F)cc1F` [Example 92, (2S)-2-(2,4-difluorophenyl)-N-[(1S,2S)-1-{[(3-fluoropyridin-2-yl)methyl]amino}-2,3-dihydro-1H-inden-2-yl]propanamide], 7 nM; to `C[C@@H](C(=O)NC1Cc2ccccc2C1O)c1ccccc1` (stereo in doubt) [Example 1, (2R)—N-((trans)-1-hydroxy-2,3-dihydro-1H-inden-2-yl)-2-phenylpropanamide], 559 nM. To `COC1c2ccccc2CC1NC(=O)[C@@H](C)c1ccc(F)cc1` (mixture of isomers) [Example 36, (2S)-2-(4-fluorophenyl)-N-((trans)-1-methoxy-2,3-dihydro-1H-inden-2-yl)propanamide] belongs 36 nM; to `CC(C)(C(=O)N[C@H]1Cc2ccccc2[C@@H]1N)c1ccc(F)cc1` [Example 99, N-[(1S,2S)-1-amino-2,3-dihydro-1H-inden-2-yl]-2-(4-fluorophenyl)-2-methylpropanamide], 2190 nM; to `N[C@H]1c2ccccc2C[C@@H]1NC(=O)C(c1ccc(F)cc1F)N1CC(OC(F)F)C1` (stereo partly drawn) [Example 119, N-[(1S,2S)-1-amino-2,3-dihydro-1H-inden-2-yl]-2-[3-(difluoromethoxy)azetidin-1-yl]-2-(2,4-difluorophenyl)acetamide], 63 nM. In the case of `CCOC1c2ccccc2CC1NC(=O)[C@@H](C)c1ccc(F)cc1` (single isomer, unassigned) [Example 32], the EC50 turned out to be 14 nM. Regarding `C[C@H](C(=O)N[C@H]1Cc2ccccc2[C@@H]1N(C)C)c1ccc(F)cc1` [Example 74, (2S)—N-(trans)-[1-(dimethylamino)-2,3-dihydro-1H-inden-2-yl]-2-(4-fluorophenyl)propanamide], the EC50 came out at 94 nM. Molecule `CC(C)(C)OC(=O)N[C@H]1c2ccccc2C[C@@H]1NC(=O)C(c1ccc(F)cc1F)N1CCC1` (stereo partly drawn) [Example 100, tert-butyl N-[(1S,2S)-2-[2-(azetidin-1-yl)-2-(2,4-difluorophenyl)acetamido]-2,3-dihydro-1H-inden-1-yl]carbamate] displayed an EC50 of 27 nM. In the case of `C[C@H](C(=O)N[C@H]1Cc2ccccc2[C@@H]1S(C)(=O)=O)c1ccc(F)cc1` [Example 132, (2S)-2-(4-fluorophenyl)-N-[(1S,2S)-1-methanesulfonyl-2,3-dihydro-1H-inden-2-yl]propanamide], the EC50 was 5 nM. To `N[C@H]1c2ccccc2C[C@@H]1NC(=O)C(c1ccc(F)cc1F)n1ncccc1=O` (single isomer, unassigned) [Example 110] belongs 1150 nM; to `C[C@H](C(=O)NC1Cc2ccccc2C1N1CCOCC1)c1ccc(F)cc1` (single isomer, unassigned) [Example 73], 45 nM. For the molecule `CC(C)(C)OC(=O)N[C@H]1c2ccccc2C[C@@H]1NC(=O)C1(c2ccc(F)cc2)CCOCC1` [Example 94, tert-butyl N-[(1S,2S)-2-[4-(4-fluorophenyl)oxane-4-amido]-2,3-dihydro-1H-inden-1-yl]carbamate], the EC50 is 46 nM. To `CS(=O)(=O)[C@@H]1c2ccccc2C[C@H]1NC(=O)C(OCC1CC1)c1ccccc1` (relative stereo) [Example 135, 2-(cyclopropylmethoxy)-N-(trans)-(1-methanesulfonyl-2,3-dihydro-1H-inden-2-yl)-2-phenylacetamide] belongs 4 nM; to `COC1c2ccccc2CC1NC(=O)C(c1ccc(F)cc1F)n1ncccc1=O` (single isomer, unassigned) [Example 127, 2-(2,4-difluorophenyl)-N-(trans)-(1-methoxy-2,3-dihydro-1H-inden-2-yl)-2-(6-oxo-1,6-dihydropyridazin-1-yl)acetamide], 82 nM; to `COC1c2ccccc2CC1NC(=O)[C@@H](N)c1ccc(F)cc1` (mixture of isomers) [Example 54, (2S)-2-amino-2-(4-fluorophenyl)-N-(trans)-(1-methoxy-2,3-dihydro-1H-inden-2-yl)acetamide], 66 nM.

With `CO[C@H](C(=O)NC1Cc2ccccc2C1S(C)(=O)=O)c1ccccc1` (single isomer, unassigned) [Example 158], a half-maximal response (EC50) required 56 nM.

Molecule `CC[C@H](C(=O)N[C@@H]1Cc2ccccc2[C@H]1N)c1ccc(F)cc1` [Example 53, (2S)—N-[(1R,2R)-1-amino-2,3-dihydro-1H-inden-2-yl]-2-(4-fluorophenyl)butanamide] gave an EC50 of 126 nM. `C[C@H](C(=O)N[C@H]1Cc2ccccc2[C@@H]1NCC(F)(F)F)c1ccc(F)cc1F` [Example 59, (2S)-2-(2,4-difluorophenyl)-N-[(1S,2S)-1-[(2,2,2-trifluoroethyl)amino]-2,3-dihydro-1H-inden-2-yl]propanamide]: the EC50 was determined as 7 nM.
